Measurements reported in ChEMBL document CHEMBL3885861, “Open TG-GATES”.

Organism: Rattus norvegicus
Assay: Open TG-GATES - Regimen: Daily Repeat
Type: toxicity, organism-based, Sprague-Dawley
Parameters: regimen Daily Repeat, gender Male, age 6 weeks
Settings: in vivo, po, 200 mg/kg, route gavage, dose level Middle; for APTT / Bas / Eos / Fbg / Hb / Ht / Lym / MCH / MCHC / MCV / Mono / Neu / PT / Plat / RBC / Ret / WBC: tissue Blood; for KIDNEY_L / KIDNEY_R / KIDNEY_TOTAL: tissue Kidney; for LIVER: tissue Liver; for A/G / ALP / ALT / AST / BUN / CRE / Ca / Cl / DBIL / GLC / IP / K / LDH / Na / PL / RALB / TBIL / TC / TG / TP / gamma-GTP: tissue Plasma

C[C@](N)(Cc1ccc(O)c(O)c1)C(=O)O [METHYLDOPA]
TERMINAL_BW (72 h, time 3 day): 196.2 g | APTT (72 h, time 3 day): 15.9 s | Bas (72 h, time 3 day): 0% | Eos (72 h, time 3 day): 0.8% | Fbg (72 h, time 3 day): 292.8 mg/dL | Hb (72 h, time 3 day): 13.8 g/dL | Ht (72 h, time 3 day): 40.6% | Lym (72 h, time 3 day): 79.4% | MCH (72 h, time 3 day): 22.1 pg | MCHC (72 h, time 3 day): 34% | MCV (72 h, time 3 day): 65 fL | Mono (72 h, time 3 day): 2.6% | Neu (72 h, time 3 day): 16.4% | PT (72 h, time 3 day): 12.7 s | Plat (72 h, time 3 day): 107.2 x10_4/uL | RBC (72 h, time 3 day): 626 x10_4/ul | Ret (72 h, time 3 day): 7.2% | WBC (72 h, time 3 day): 59.1 x10_2/uL | KIDNEY_L (72 h, time 3 day): 0.9 g | KIDNEY_R (72 h, time 3 day): 0.9 g | KIDNEY_TOTAL (72 h, time 3 day): 1.9 g | LIVER (72 h, time 3 day): 8.5 g | A/G (72 h, time 3 day): 0.9 | ALP (72 h, time 3 day): 1722.4 IU/L | ALT (72 h, time 3 day): 53.4 IU/L | AST (72 h, time 3 day): 73 IU/L | BUN (72 h, time 3 day): 16.6 mg/dL | CRE (72 h, time 3 day): 0.2 mg/dL | Ca (72 h, time 3 day): 11.2 mg/dL | Cl (72 h, time 3 day): 105.8 meq/L | DBIL (72 h, time 3 day): 0.008 mg/dL | GLC (72 h, time 3 day): 174 mg/dL | IP (72 h, time 3 day): 8.4 mg/dL | K (72 h, time 3 day): 4.5 meq/L | LDH (72 h, time 3 day): 71.4 IU/L | Na (72 h, time 3 day): 145.8 meq/L | PL (72 h, time 3 day): 144 mg/dL | RALB (72 h, time 3 day): 2.7 g/dL | TBIL (72 h, time 3 day): 0.062 mg/dL | TC (72 h, time 3 day): 97 mg/dL | TG (72 h, time 3 day): 34 mg/dL | TP (72 h, time 3 day): 5.8 g/dL | gamma-GTP (72 h, time 3 day): 1 IU/L | TERMINAL_BW ([…], time 7 day): 218.2 g | TERMINAL_BW ([…], time 14 day): 271 g | TERMINAL_BW ([…], time 28 day): 346.4 g | APTT ([…], time 7 day): 17.4 s | Bas ([…], time 7 day): 0% | Eos ([…], time 7 day): 1% | Fbg ([…], time 7 day): 269.4 mg/dL | Hb ([…], time 7 day): 14.1 g/dL | Ht ([…], time 7 day): 40.6% | Lym ([…], time 7 day): 78.8% | MCH ([…], time 7 day): 21.5 pg | MCHC ([…], time 7 day): 34.7% | MCV ([…], time 7 day): 61.9 fL | Mono ([…], time 7 day): 3.6% | Neu ([…], time 7 day): 16.2% | PT ([…], time 7 day): 12.2 s | Plat ([…], time 7 day): 122.9 x10_4/uL | RBC ([…], time 7 day): 656.4 x10_4/ul | Ret ([…], time 7 day): 4.5% | WBC ([…], time 7 day): 71.2 x10_2/uL | APTT ([…], time 14 day): 16.1 s | Bas ([…], time 14 day): 0% | Eos ([…], time 14 day): 1% | Fbg ([…], time 14 day): 278.2 mg/dL | Hb ([…], time 14 day): 13.8 g/dL | Ht ([…], time 14 day): 39.5% | Lym ([…], time 14 day): 80.6% | MCH ([…], time 14 day): 20.9 pg | MCHC ([…], time 14 day): 34.9% | MCV ([…], time 14 day): 59.9 fL | Mono ([…], time 14 day): 1.8% | Neu ([…], time 14 day): 16.2% | PT ([…], time 14 day): 14.2 s | Plat ([…], time 14 day): 111.8 x10_4/uL | RBC ([…], time 14 day): 659.4 x10_4/ul | Ret ([…], time 14 day): 4.9% | WBC ([…], time 14 day): 82.5 x10_2/uL | APTT ([…], time 28 day): 17.8 s | Bas ([…], time 28 day): 0% | Eos ([…], time 28 day): 1.2% | Fbg ([…], time 28 day): 280 mg/dL | Hb ([…], time 28 day): 15.1 g/dL | Ht ([…], time 28 day): 43% | Lym ([…], time 28 day): 81.2% | MCH ([…], time 28 day): 19.8 pg | MCHC ([…], time 28 day): 35.1% | MCV ([…], time 28 day): 56.5 fL | Mono ([…], time 28 day): 1.4% | Neu ([…], time 28 day): 15.6% | PT ([…], time 28 day): 14 s | Plat ([…], time 28 day): 101.7 x10_4/uL | RBC ([…], time 28 day): 760.8 x10_4/ul | Ret ([…], time 28 day): 2.3% | WBC ([…], time 28 day): 76.9 x10_2/uL | KIDNEY_L ([…], time 7 day): 0.9 g | KIDNEY_R ([…], time 7 day): 0.9 g | KIDNEY_TOTAL ([…], time 7 day): 1.9 g | KIDNEY_L ([…], time 14 day): 1.1 g | KIDNEY_R ([…], time 14 day): 1 g | KIDNEY_TOTAL ([…], time 14 day): 2.1 g | KIDNEY_L ([…], time 28 day): 1.2 g | KIDNEY_R ([…], time 28 day): 1.2 g | KIDNEY_TOTAL ([…], time 28 day): 2.4 g | LIVER ([…], time 7 day): 8.8 g | LIVER ([…], time 14 day): 10.2 g | LIVER ([…], time 28 day): 12.9 g | A/G ([…], time 7 day): 0.9 | ALP ([…], time 7 day): 1381.2 IU/L | ALT ([…], time 7 day): 45.4 IU/L | AST ([…], time 7 day): 67.8 IU/L | BUN ([…], time 7 day): 14.2 mg/dL | CRE ([…], time 7 day): 0.2 mg/dL | Ca ([…], time 7 day): 10.8 mg/dL | Cl ([…], time 7 day): 107.4 meq/L | DBIL ([…], time 7 day): 0.01 mg/dL | GLC ([…], time 7 day): 179.8 mg/dL | IP ([…], time 7 day): 7.7 mg/dL | K ([…], time 7 day): 4.3 meq/L | LDH ([…], time 7 day): 54.2 IU/L | Na ([…], time 7 day): 143.4 meq/L | PL ([…], time 7 day): 132.4 mg/dL | RALB ([…], time 7 day): 2.7 g/dL | TBIL ([…], time 7 day): 0.068 mg/dL | TC ([…], time 7 day): 84.2 mg/dL | TG ([…], time 7 day): 36.2 mg/dL | TP ([…], time 7 day): 5.7 g/dL | gamma-GTP ([…], time 7 day): 0.8 IU/L | A/G ([…], time 14 day): 0.8 | ALP ([…], time 14 day): 1316.6 IU/L | ALT ([…], time 14 day): 42.2 IU/L | AST ([…], time 14 day): 61.8 IU/L | BUN ([…], time 14 day): 12.6 mg/dL | CRE ([…], time 14 day): 0.2 mg/dL | Ca ([…], time 14 day): 11 mg/dL | Cl ([…], time 14 day): 105.2 meq/L | DBIL ([…], time 14 day): 0.002 mg/dL | GLC ([…], time 14 day): 182.2 mg/dL | IP ([…], time 14 day): 7.1 mg/dL | K ([…], time 14 day): 4.4 meq/L | LDH ([…], time 14 day): 58 IU/L | Na ([…], time 14 day): 141.6 meq/L | PL ([…], time 14 day): 137 mg/dL | RALB ([…], time 14 day): 2.6 g/dL | TBIL ([…], time 14 day): 0.054 mg/dL | TC ([…], time 14 day): 87.6 mg/dL | TG ([…], time 14 day): 35.2 mg/dL | TP ([…], time 14 day): 5.7 g/dL | gamma-GTP ([…], time 14 day): 0.8 IU/L | A/G ([…], time 28 day): 0.8 | ALP ([…], time 28 day): 1006.8 IU/L | ALT ([…], time 28 day): 39.8 IU/L | AST ([…], time 28 day): 55.4 IU/L | BUN ([…], time 28 day): 13.2 mg/dL | CRE ([…], time 28 day): 0.2 mg/dL | Ca ([…], time 28 day): 10.7 mg/dL | Cl ([…], time 28 day): 104.8 meq/L | DBIL ([…], time 28 day): 0.018 mg/dL | GLC ([…], time 28 day): 182.2 mg/dL | IP ([…], time 28 day): 6.4 mg/dL | K ([…], time 28 day): 4 meq/L | LDH ([…], time 28 day): 39.8 IU/L | Na ([…], time 28 day): 142.8 meq/L | PL ([…], time 28 day): 144.6 mg/dL | RALB ([…], time 28 day): 2.7 g/dL | TBIL ([…], time 28 day): 0.052 mg/dL | TC ([…], time 28 day): 89.2 mg/dL | TG ([…], time 28 day): 50.8 mg/dL | TP ([…], time 28 day): 6.1 g/dL | gamma-GTP ([…], time 28 day): 1.2 IU/L
